Assays:
Assay type in all cases: in vivo
[1] = test system: Echinochloa oryzacola Vasing.; experiment: Test Example 1: herbicidal activity, application before weed generation in submerged conditions; conditions: Application herbicide amount 320 g/ha; Seventeenth Table
Outline: (§1)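 Pre-emergence water-surface application under 4 cm flooding, same day as sowing, with rice transplanted at 2.5 leaf stage. Dose given as g/ha. Plants grown at 25° C. to 30° C. and rated three weeks later on a 0 (≤5%) to 5 (≥90%) herbicidal-ratio scale.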

Monochoria vaginalis = experiment: as above; conditions: Application herbicide amount 320 g/ha; Seventeenth Table
Outline: as §1

Scirpus juncoides = experiment: as above; conditions: Application herbicide amount 320 g/ha; Seventeenth Table
Outline: as §1

[2] = test system: transplanted Oryza sativa; experiment: Test Example 1: effect on crop, application before weed generation in submerged conditions; conditions: Application herbicide amount 320 g/ha; Seventeenth Table
Outline: as §1

Abutilon theophrasti = experiment: Test Example 4: herbicidal effect by application to foliage (diluvial soil, plastic box); conditions: for M (Abutilon theophrasti) herbicidal effect: application to foliage, application herbicide amount 320 g/ha; for M: Application herbicide amount 320 g/ha
Outline: (§2)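 Seeds sown in sterilized diluvial soil, covered ~1.5 cm, grown 14 days in greenhouse at 25° C. to 30° C. Emulsion formulation diluted in water to set rate (g/ha) and sprayed onto stems and leaves. Effect scored visually 3 weeks later on 0–5 scale (5 = ≥90% herbicidal ratio, 0 = ≤5%).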

Alopecurus myosuroides = experiment: as above; conditions: for J (Alopecurus myosuroides) herbicidal effect: application to foliage, application herbicide amount 320 g/ha; for J: Application herbicide amount 320 g/ha
Outline: as §2

Apera spica-venti. = experiment: as above; conditions: for L (Apera spica-venti.) herbicidal effect: application to foliage, application herbicide amount 320 g/ha; for L: Application herbicide amount 320 g/ha
Outline: as §2

Avena fatua = experiment: as above; conditions: for I (Avena fatua) herbicidal effect: application to foliage, application herbicide amount 320 g/ha; for I: Application herbicide amount 320 g/ha
Outline: as §2

Chenopodium album = experiment: as above; conditions: for O (Chenopodium album) herbicidal effect: application to foliage, application herbicide amount 320 g/ha; for O: Application herbicide amount 320 g/ha
Outline: as §2

Digitaria ciliaris = experiment: as above; conditions: for F (Digitaria ciliaris) herbicidal effect: application to foliage, application herbicide amount 320 g/ha; for F: Application herbicide amount 320 g/ha
Outline: as §2

[3] = test system: Echinochloa crus-galli var. crus-galli; experiment: as above; conditions: for H (Echinochloa crus-galli var. crus-galli) herbicidal effect: application to foliage, application herbicide amount 320 g/ha; for H: Application herbicide amount 320 g/ha
Outline: as §2

Galium spurium = experiment: as above; conditions: for Q (Galium spurium) herbicidal effect: application to foliage, application herbicide amount 320 g/ha; for Q: Application herbicide amount 320 g/ha
Outline: as §2

Lolium multiflorum Lam. = experiment: as above; conditions: for K (Lolium multiflorum Lam.) herbicidal effect: application to foliage, application herbicide amount 320 g/ha; for K: Application herbicide amount 320 g/ha
Outline: as §2

Setaria viridis = experiment: as above; conditions: for G (Setaria viridis) herbicidal effect: application to foliage, application herbicide amount 320 g/ha; for G: Application herbicide amount 320 g/ha
Outline: as §2

Veronica persica = experiment: as above; conditions: for R (Veronica persica) herbicidal effect: application to foliage, application herbicide amount 320 g/ha; for R: Application herbicide amount 320 g/ha
Outline: as §2

[4] = test system: Beta vulgaris ssp. vulgaris; experiment: Test Example 4: effect on crop by application to foliage (diluvial soil, plastic box); conditions: for f (Beta vulgaris ssp. vulgaris) effect on crop: application to foliage, application herbicide amount 320 g/ha; for f: Application herbicide amount 320 g/ha, effect on crop
Outline: as §2

Brassica campestris L. = experiment: as above; conditions: for g (Brassica campestris L.) effect on crop: application to foliage, application herbicide amount 320 g/ha; for g: Application herbicide amount 320 g/ha, effect on crop
Outline: as §2

Glycine max = experiment: as above; conditions: for c (Glycine max) effect on crop: application to foliage, application herbicide amount 320 g/ha; for c: Application herbicide amount 320 g/ha, effect on crop
Outline: as §2

Triticum aestivum = experiment: as above; conditions: for e (Triticum aestivum) effect on crop: application to foliage, application herbicide amount 320 g/ha; for e: Application herbicide amount 320 g/ha, effect on crop
Outline: as §2

Zea mays = experiment: as above; conditions: for b (Zea mays) effect on crop: application to foliage, application herbicide amount 320 g/ha; for b: Application herbicide amount 320 g/ha, effect on crop
Outline: as §2

[5] = test system: directly sowed Oryza sativa; experiment: as above; conditions: for d (directly sowed Oryza sativa) effect on crop: application to foliage, application herbicide amount 320 g/ha; for d: Application herbicide amount 320 g/ha, effect on crop
Outline: as §2

| Compound | A: Echinochloa oryzicola Vasing. (herbicidal effect grade) [1] | C: Monochoria vaginalis (herbicidal effect grade) (Monochoria vaginalis) | B: Scirpus juncoides (herbicidal effect grade) (Scirpus juncoides) | a: transplanted Oryza sativa (effect on crop grade) [2] | M (Abutilon theophrasti) herbicidal effect (Abutilon theophrasti) | J (Alopecurus myosuroides) herbicidal effect (Alopecurus myosuroides) | L (Apera spica-venti.) herbicidal effect (Apera spica-venti.) | I (Avena fatua) herbicidal effect (Avena fatua) | O (Chenopodium album) herbicidal effect (Chenopodium album) | F (Digitaria ciliaris) herbicidal effect (Digitaria ciliaris) | H (Echinochloa crus-galli var. crus-galli) herbicidal effect [3] | Q (Galium spurium) herbicidal effect (Galium spurium) | K (Lolium multiflorum Lam.) herbicidal effect (Lolium multiflorum Lam.) | G (Setaria viridis) herbicidal effect (Setaria viridis) | R (Veronica persica) herbicidal effect (Veronica persica) | f (Beta vulgaris ssp. vulgaris) effect on crop [4] | g (Brassica campestris L.) effect on crop (Brassica campestris L.) | c (Glycine max) effect on crop (Glycine max) | e (Triticum aestivum) effect on crop (Triticum aestivum) | b (Zea mays) effect on crop (Zea mays) | other results |
| --- | --- | --- | --- | --- | --- | --- | --- | --- | --- | --- | --- | --- | --- | --- | --- | --- | --- | --- | --- | --- | --- |
| Cc1nnc(NC(=O)c2ccc(C(F)(F)F)n3c(-c4ccccc4)nnc23)o1 [1-012] | 5 (Herbicidal ratio of 90% or more (almost completely withered)) | 4 (Herbicidal ratio of 70% or more and less than 90%) | 3 (Herbicidal ratio of 40% or more and less than 70%) | 0 (Herbicidal ratio of 5% or less (almost no effect)) | 3 (Herbicidal ratio of 40% or more and less than 70%) | 0 (Herbicidal ratio of 5% or less (almost no effect)) | 1 (Herbicidal ratio of 5% or more and less than 20%) | 0 (Herbicidal ratio of 5% or less (almost no effect)) | 5 (Herbicidal ratio of 90% or more (almost completely withered)) | 3 (Herbicidal ratio of 40% or more and less than 70%) | 4 (Herbicidal ratio of 70% or more and less than 90%) | 2 (Herbicidal ratio of 20% or more and less than 40%) | 1 (Herbicidal ratio of 5% or more and less than 20%) | 4 (Herbicidal ratio of 70% or more and less than 90%) | 4 (Herbicidal ratio of 70% or more and less than 90%) | 3 (Herbicidal ratio of 40% or more and less than 70%) | 4 (Herbicidal ratio of 70% or more and less than 90%) | 1 (Herbicidal ratio of 5% or more and less than 20%) | 0 (Herbicidal ratio of 5% or less (almost no effect)) | 0 (Herbicidal ratio of 5% or less (almost no effect)) | d (directly sowed Oryza sativa) effect on crop [5]: 2 (Herbicidal ratio of 20% or more and less than 40%) |
| C#CC[S+]([O-])c1nnc2c(C(=O)Nc3nnc(C)o3)ccc(C(F)(F)F)n12 (stereo not drawn) [1-077] | 0 (Herbicidal ratio of 5% or less (almost no effect)) | 2 (Herbicidal ratio of 20% or more and less than 40%) | 0 (Herbicidal ratio of 5% or less (almost no effect)) | 0 (Herbicidal ratio of 5% or less (almost no effect)) |  |  |  |  |  |  |  |  |  |  |  |  |  |  |  |  | M (Abutilon theophrasti): 2 (Herbicidal ratio of 20% or more and less than 40%); J (Alopecurus myosuroides): 0 (Herbicidal ratio of 5% or less (almost no effect)); L (Apera spica-venti.): 0 (Herbicidal ratio of 5% or less (almost no effect)); I (Avena fatua): 0 (Herbicidal ratio of 5% or less (almost no effect)); O (Chenopodium album): 5 (Herbicidal ratio of 90% or more (almost completely withered)); F (Digitaria ciliaris): 4 (Herbicidal ratio of 70% or more and less than 90%); H [3]: 4 (Herbicidal ratio of 70% or more and less than 90%); Q (Galium spurium): 1 (Herbicidal ratio of 5% or more and less than 20%); K (Lolium multiflorum Lam.): 0 (Herbicidal ratio of 5% or less (almost no effect)); G (Setaria viridis): 2 (Herbicidal ratio of 20% or more and less than 40%); R (Veronica persica): 3 (Herbicidal ratio of 40% or more and less than 70%); f [4]: 3 (Herbicidal ratio of 40% or more and less than 70%); g (Brassica campestris L.): 3 (Herbicidal ratio of 40% or more and less than 70%); c (Glycine max): 0 (Herbicidal ratio of 5% or less (almost no effect)); e (Triticum aestivum): 0 (Herbicidal ratio of 5% or less (almost no effect)); b (Zea mays): 0 (Herbicidal ratio of 5% or less (almost no effect)); d [5]: 3 (Herbicidal ratio of 40% or more and less than 70%) |
| CCC(C)Sc1nnc2c(C(=O)Nc3nnc(C)o3)ccc(C(F)(F)F)n12 (stereo not drawn) [1-094] | 5 (Herbicidal ratio of 90% or more (almost completely withered)) | 3 (Herbicidal ratio of 40% or more and less than 70%) | 5 (Herbicidal ratio of 90% or more (almost completely withered)) | 0 (Herbicidal ratio of 5% or less (almost no effect)) |  |  |  |  |  |  |  |  |  |  |  |  |  |  |  |  | M (Abutilon theophrasti): 4 (Herbicidal ratio of 70% or more and less than 90%); J (Alopecurus myosuroides): 1 (Herbicidal ratio of 5% or more and less than 20%); L (Apera spica-venti.): 1 (Herbicidal ratio of 5% or more and less than 20%); I (Avena fatua): 2 (Herbicidal ratio of 20% or more and less than 40%); O (Chenopodium album): 5 (Herbicidal ratio of 90% or more (almost completely withered)); F (Digitaria ciliaris): 5 (Herbicidal ratio of 90% or more (almost completely withered)); H [3]: 5 (Herbicidal ratio of 90% or more (almost completely withered)); Q (Galium spurium): 0 (Herbicidal ratio of 5% or less (almost no effect)); K (Lolium multiflorum Lam.): 1 (Herbicidal ratio of 5% or more and less than 20%); G (Setaria viridis): 4 (Herbicidal ratio of 70% or more and less than 90%); R (Veronica persica): 4 (Herbicidal ratio of 70% or more and less than 90%); f [4]: 5 (Herbicidal ratio of 90% or more (almost completely withered)); g (Brassica campestris L.): 3 (Herbicidal ratio of 40% or more and less than 70%); c (Glycine max): 4 (Herbicidal ratio of 70% or more and less than 90%); e (Triticum aestivum): 1 (Herbicidal ratio of 5% or more and less than 20%); b (Zea mays): 0 (Herbicidal ratio of 5% or less (almost no effect)); d [5]: 3 (Herbicidal ratio of 40% or more and less than 70%) |
| Cc1cc(-c2nnc3c(C(=O)Nc4nnc(C)o4)ccc(C(F)(F)F)n23)no1 [1-022] | 2 (Herbicidal ratio of 20% or more and less than 40%) | 0 (Herbicidal ratio of 5% or less (almost no effect)) | 2 (Herbicidal ratio of 20% or more and less than 40%) | 0 (Herbicidal ratio of 5% or less (almost no effect)) | 5 (Herbicidal ratio of 90% or more (almost completely withered)) | 1 (Herbicidal ratio of 5% or more and less than 20%) | 1 (Herbicidal ratio of 5% or more and less than 20%) | 1 (Herbicidal ratio of 5% or more and less than 20%) | 5 (Herbicidal ratio of 90% or more (almost completely withered)) | 4 (Herbicidal ratio of 70% or more and less than 90%) | 5 (Herbicidal ratio of 90% or more (almost completely withered)) | 2 (Herbicidal ratio of 20% or more and less than 40%) | 1 (Herbicidal ratio of 5% or more and less than 20%) | 3 (Herbicidal ratio of 40% or more and less than 70%) | 4 (Herbicidal ratio of 70% or more and less than 90%) | 4 (Herbicidal ratio of 70% or more and less than 90%) | 2 (Herbicidal ratio of 20% or more and less than 40%) | 2 (Herbicidal ratio of 20% or more and less than 40%) | 1 (Herbicidal ratio of 5% or more and less than 20%) | 0 (Herbicidal ratio of 5% or less (almost no effect)) | d (directly sowed Oryza sativa) effect on crop [5]: 3 (Herbicidal ratio of 40% or more and less than 70%) |

From patent publication US9708314B2, “Heterocyclic amide compound” (NISSAN CHEMICAL INDUSTRIES, LTD., priority 2013, dated 2017)
